Experimental data published in paper PMC8474119, “Discovery and SAR Evolution of Pyrazole Azabicyclo[3.2.1]octane Sulfonamides as a Novel Class of Non-Covalent N-Acylethanolamine-Hydrolyzing Acid Amidase (NAAA) Inhibitors for Oral Administration” (Journal of Medicinal Chemistry, 2021).

Biological target: T1, h-NAAA (Homo sapiens, UniProt Q02083)
T1 construct: made in house; host or cells: HEK-293 cells stably overexpressing human NAAA; enzyme-enriched (lysosomal) lysate
T1 sequence (Q02083 29-125 limits assumed): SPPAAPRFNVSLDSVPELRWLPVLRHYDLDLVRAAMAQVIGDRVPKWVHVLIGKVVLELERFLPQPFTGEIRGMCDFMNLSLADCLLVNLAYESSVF
T1 sequence (Q02083 126-359 limits assumed): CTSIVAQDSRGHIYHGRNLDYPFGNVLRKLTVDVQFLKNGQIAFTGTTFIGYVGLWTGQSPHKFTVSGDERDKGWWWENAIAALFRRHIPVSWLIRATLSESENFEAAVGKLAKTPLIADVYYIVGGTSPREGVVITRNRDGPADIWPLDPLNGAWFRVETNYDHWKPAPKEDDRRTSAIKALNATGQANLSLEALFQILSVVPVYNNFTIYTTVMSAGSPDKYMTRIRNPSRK
Experiment: Fluorogenic human-NAAA assay (h-NAAA, fluo.)
Type: biochemical
Conditions: for LipE: LipE = pIC50 – c Log P (h-NAAA); for pIC50: Table S1; for pIC50 / IC50: h-NAAA (fluo.); for IC50: mean ± SD (n ≥ 3), n.a.: not active @50 μM (<10% inhibition)
Procedure: Human recombinant proteins were obtained from HEK-293 stable overexpressing human NAAA, AC, and FAAH-1 cell lines, respectively. Cells were grown in Dulbecco’s modified Eagle medium (DMEM) containing 10% FBS, 1% glutamine, 1 mM sodium pyruvate, and 500 μg/mL geneticin (G418). To obtain a high-density cell proliferation, h-NAAA-HEK-293 cells were grown in BelloCell-500 bottle, a compact bioreactor. On the contrary, h-AC and h-FAAH-1-HEK-293 cells were grown in 150 mm dishes and scraped off with cold PBS 1× pH 7.4 at 80% confluence. Cell pellets were collected and stored at −80 °C until protein preparation.
HEK-293 cells stably transfected with the human NAAA or human AC coding sequences were used as the enzyme source. Cells were suspended in 20 mM Tris-HCl (pH 7.4) with 0.32 M sucrose, sonicated, and centrifuged at 800g for 30 min at 4 °C. Supernatants were then centrifuged at 12,000g for 30 min at 4 °C. Pellets were resuspended in PBS buffer (pH 7.4) and subjected to three freeze-thaw cycles at −80 °C. The suspension was finally centrifuged at 105,000g for 1 h at 4 °C, supernatants were collected, protein concentration was measured, and samples were aliquoted and stored at −80 °C until use.
The assay was run in 96-well microplates (Black OptiPlate-96 F; PerkinElmer, Massachusetts, USA), in a total reaction volume of 200 μL. h-NAAA protein preparation (4 μg) was preincubated for 30 min with various concentrations of test compounds or vehicle control (DMSO 5%) in 100 mM citrate/phosphate buffer (pH 4.5) containing 3.0 mM DTT, 0.1% NP40, 0.05% BSA, and 150 mM NaCl. The background (no activity) samples were prepared using assay buffer without h-NAAA and DMSO (5%). N-(4-methyl-2-oxo-chromen-7-yl)-hexadecanamide (PAMCA)[60] was used as a substrate (2 μM) and the reaction was carried out for 50 min at 37 °C. Fluorescence was measured with EnVision 2014 Multilabel Reader (PerkinElmer, Massachusetts, USA) using an excitation wavelength of 355 nm and an emission of 460 nm. IC50 values were calculated by non-linear regression analysis of log[concentration]/response curves generated with mean replicate values using a four-parameter Hill equation curve fitting with GraphPad Prism 5 (GraphPad Software Inc., CA, USA).

| Compound | LipE | pIC50 | IC50 |
| --- | --- | --- | --- |
| CCCCc1ccc(O[C@H]2C[C@H]3CC[C@@H](C2)N3S(=O)(=O)c2c(C)n[nH]c2C)cc1 [Compound 39, (1R,3r,5S)-3-(4-Butylphenoxy)-8-((3,5-dimethyl-1H-pyrazol-4-yl)sulfonyl)-8-azabicyclo[3.2.1]octane] | 3.84 | 7.64 | 23 ± 4 nM |
| CCOCc1cnc(O[C@H]2C[C@H]3CC[C@@H](C2)N3S(=O)(=O)c2c(C)n[nH]c2C)cn1 [Compound 50, (1R,3r,5S)-8-((3,5-Dimethyl-1H-pyrazol-4-yl)sulfonyl)-3-((5-(ethoxymethyl)pyrazin-2-yl)oxy)-8-azabicyclo[3.2.1]octane] | 6.83 | 7.38 | 42 ± 2 nM |
